One data set has as its system AMPA receptor. In words: Inhibition of the cainate-induced signal at the AMPA receptor, electrophysiology on neuronal cells (patch-clamp method). It counts as cell-based. Particulars: test concentration of 100 μM. The procedure: The testing was carried out at a test concentration of 100 μM.
(The patch-clamp technique gives a direct electrical read-out from membranes.)

The target of data set [1] is Na+ channel site 2 binding site. In words: Affinity to the "Na+ channel site 2" binding site (method of G. B. Brown). Particulars: testing typically at a test concentration of 10 μM.

Results on 23 compounds are retold here after US6492407B2, “Pharmaceutical compositions containing triazolones and methods of treating neurodegenerative disease using triazolones” (Boehringer Imgelheim Pharma KG, priority 1998, dated 2002).

pKi: −log10 of the molar value. Where a name gives a salt, the structure may show the parent alone.

For the compound `Cc1ccccc1-n1nc(-c2ccccc2)n(CCN(C)C)c1=O` (as salt: HCl) [Example 27, 4-(2-N,N-dimethyl-aminoethyl)-2-(2-methyl-phenyl)-5-phenyl-3H-1,2,4-triazol-3-one], the melting point (usually the temperature of the solid-liquid transition) was in the range of 204 to 207 °C. Same read-out and setting: in the case of `Cc1cccc(-n2[nH]c(-c3ccccc3)nc2=O)c1` (as salt: HCl) [Example 46, 2-(3-methyl-phenyl)-5-phenyl-3H-1,2,4-triazol-3-one] it was 207 to 208 °C; in that of `CN(C)CCn1c(-c2ccccc2)nn(-c2cccc(F)c2)c1=O` (as salt: HCl) [Example 49, 2-(3-fluorophenyl)-4-(2-N,N-dimethyl-aminoethyl)-5-phenyl-3H-1,2,4-triazol-3-one], 201 to 203 °C; in that of `Cc1cccc(-n2nc(-c3ccccc3)n(CCN(C)C)c2=O)c1` (as salt: HCl) [Example 53, 4-(2-N,N-dimethyl-amino-ethyl)-2-(3-methyl-phenyl)-5-phenyl-3H-1,2,4-triazol-3-one], 204 to 206 °C. In the case of `Cc1ccccc1-n1[nH]c(-c2ccccc2)nc1=O` [Example 1, 2-(2-methyl-phenyl)-5-phenyl-3H-1,2,4-triazol-3-one], the melting point fell in the range of 208 to 211 °C. In the data set with AMPA receptor, the “AMPA Inh. [%] (inhibition of the cainate-induced signal at the AMPA receptor)” value stood at 58%. The like results for `COc1cccc(-n2nc(-c3ccccc3)n(C)c2=O)c1` [Example 5, 2-(3-methoxy-phenyl)-4-methyl-5-phenyl-3H-1,2,4-triazol-3-one] were, in that order, 81 to 83 °C and 58%. For `Cn1c(-c2ccccc2)nn(-c2ccccc2Br)c1=O` [Example 8, 2-(2-bromo-phenyl)-4-methyl-5-phenyl-3H-1,2,4-triazol-3-one], in that order: 80 to 82 °C and 87%. For `COc1ccc(-c2nn(-c3ccccc3)c(=O)n2C)cc1` [Example 22, 5-(4-methoxy-phenyl)-4-methyl-2-phenyl-3H-1,2,4-triazol-3-one], in that order: 118 °C and 50%. Regarding `COc1ccccc1-c1nn(-c2ccccc2)c(=O)n1C` [Example 25, 5-(2-methoxy-phenyl)-4-methyl-2-phenyl-3H-1,2,4-triazol-3-one], the melting point is 117 °C. The “AMPA Inh. [%] (inhibition of the cainate-induced signal at the AMPA receptor)” value in the data set on AMPA receptor was determined as 72%. For the compound `Cc1ccccc1-n1nc(-c2ccccc2)n(CCN(C)C)c1=O` [Example 27, 4-(2-N,N-dimethyl-aminoethyl)-2-(2-methyl-phenyl)-5-phenyl-3H-1,2,4-triazol-3-one], the “AMPA Inh. [%] (inhibition of the cainate-induced signal at the AMPA receptor)” value with AMPA receptor is 64%. In addition, the pKi (as a rule, the negative decadic logarithm of the Ki, by convention in mol/L) in data set [1] is 5.27. In turn, `COc1ccccc1-n1[nH]c(-c2ccccc2)nc1=O` [Example 32, 2-(2-methoxy-phenyl)-5-phenyl-3H-1,2,4-triazol-3-one] showed a melting point of 275 to 277 °C. Also, the “AMPA Inh. [%] (inhibition of the cainate-induced signal at the AMPA receptor)” value in the data set with AMPA receptor worked out at 73%.

`O=c1nc(-c2ccccc2)[nH]n1-c1ccccc1Cl` [Example 33, 2-(2-chloro-phenyl)-5-phenyl-3H-1,2,4-triazol-3-one] had a melting point of 257 °C. Also, the “AMPA Inh. [%] (inhibition of the cainate-induced signal at the AMPA receptor)” value in the data set on AMPA receptor stood at 97%. With `CN(C)CCn1c(-c2ccccc2)nn(-c2cccc(Cl)c2)c1=O` [Example 35, 2-(3-chloro-phenyl)-4-(2-N,N-dimethylamino-ethyl)-5-phenyl-3H-1,2,4-triazol-3-one], the pKi in data set [1] is 5.68. As to `O=c1nc(-c2ccccc2)[nH]n1-c1ccccc1F` [Example 37, 2-(2-fluoro-phenyl)-5-phenyl-3H-1,2,4-triazol-3-one], the melting point was 238 to 240 °C. Moreover, the “AMPA Inh. [%] (inhibition of the cainate-induced signal at the AMPA receptor)” value with AMPA receptor is given as 86%.

For `Cn1c(-c2ccccc2)nn(-c2cccc(F)c2)c1=O` [Example 42, 2-(3-fluoro-phenyl)-4-methyl-5-phenyl-3H-1,2,4-triazol-3-one], the melting point was determined as 81 °C. Besides, the “AMPA Inh. [%] (inhibition of the cainate-induced signal at the AMPA receptor)” value with AMPA receptor is 96%. For `Cn1c(-c2ccccc2)nn(-c2ccccc2F)c1=O` [Example 44, 2-(2-fluoro-phenyl)-4-methyl-5-phenyl-3H-1,2,4-triazol-3-one], in that order: 65 to 66 °C and 76%.

For the compound `Cc1cccc(-n2[nH]c(-c3ccccc3)nc2=O)c1` [Example 46, 2-(3-methyl-phenyl)-5-phenyl-3H-1,2,4-triazol-3-one], the “AMPA Inh. [%] (inhibition of the cainate-induced signal at the AMPA receptor)” value with AMPA receptor amounted to 54%. For the compound `CCc1ccccc1-n1[nH]c(-c2ccccc2)nc1=O` [Example 48, 2-(2-ethyl-phenyl)-5-phenyl-3H-1,2,4-triazol-3-one], the melting point was 209 to 210 °C. Also, the “AMPA Inh. [%] (inhibition of the cainate-induced signal at the AMPA receptor)” value in the data set on AMPA receptor was 63%. As to `CN(C)CCn1c(-c2ccccc2)nn(-c2cccc(F)c2)c1=O` [Example 49, 2-(3-fluorophenyl)-4-(2-N,N-dimethyl-aminoethyl)-5-phenyl-3H-1,2,4-triazol-3-one], the pKi in data set [1] is 5.18. The compound `Cc1cccc(-n2nc(-c3ccccc3)n(C)c2=O)c1` [Example 50, 4-methyl-2-(3-methyl-phenyl)-5-phenyl-3H-1,2,4-triazol-3-one] showed a melting point of 91 to 92 °C. In addition, the “AMPA Inh. [%] (inhibition of the cainate-induced signal at the AMPA receptor)” value in the data set on AMPA receptor amounted to 71%. As for `Cc1cccc(-n2nc(-c3ccccc3)n(CCN(C)C)c2=O)c1` [Example 53, 4-(2-N,N-dimethyl-amino-ethyl)-2-(3-methyl-phenyl)-5-phenyl-3H-1,2,4-triazol-3-one], in data set [1], the pKi was 5.24. Take `Cn1c(-c2ccccc2)nn(-c2ccccc2Cl)c1=O` [Example 55, 2-(2-chloro-phenyl)-4-methyl-5-phenyl-3H-1,2,4-triazol-3-one]: the melting point is 94 to 96 °C. Besides, in the data set with AMPA receptor, the “AMPA Inh. [%] (inhibition of the cainate-induced signal at the AMPA receptor)” value is given as 80%. The like results for `O=c1nc(-c2ccccc2)[nH]n1-c1ccccc1Br` [Example 56, 2-(2-bromo-phenyl)-5-phenyl-3H-1,2,4-triazol-3-one] were, in that order, 246 to 264 °C and 96%.
